# Test system: human L540Cy tumors
# Parameters: species or system SCID mice
# Details: mouse, in vivo
compound,measurement,setting,value
"CC1=NC[C@H](O)[C@@H](C(=O)O)N1 [S,S-β-hydroxyectoine]","tumor development compared with PBS without S,S-β-hydroxyectoine",,faster tumor development
same,average survival rates calculated according to Kaplan-Meier,iv,30.0 (±2) days
